According to patent US20230250095A1, “BENZIMIDAZOLE DERIVATIVES, PREPARATION METHOD THEREFOR AND MEDICAL USE THEREOF” (TUOJIE BIOTECH(SHANGHAI) CO., LTD., priority 2020, published 2023):

biological target: T1, CYP1A2 (Homo sapiens, UniProt P05177); experiment: CYP inhibition assay in pooled human liver microsomes (phenacetin); format: in vitro ADME; conditions: human liver microsomes 0.2 mg/mL, substrate phenacetin; read-out: CYP 1A2 (μM) IC50
T1 construct: 150-donor pooled human liver microsomes (purchased from Corning, Cat. No. 452117); tissue Corning 452117; host or cells: 150-donor pooled human liver microsomes
T1 sequence (P05177 1-516): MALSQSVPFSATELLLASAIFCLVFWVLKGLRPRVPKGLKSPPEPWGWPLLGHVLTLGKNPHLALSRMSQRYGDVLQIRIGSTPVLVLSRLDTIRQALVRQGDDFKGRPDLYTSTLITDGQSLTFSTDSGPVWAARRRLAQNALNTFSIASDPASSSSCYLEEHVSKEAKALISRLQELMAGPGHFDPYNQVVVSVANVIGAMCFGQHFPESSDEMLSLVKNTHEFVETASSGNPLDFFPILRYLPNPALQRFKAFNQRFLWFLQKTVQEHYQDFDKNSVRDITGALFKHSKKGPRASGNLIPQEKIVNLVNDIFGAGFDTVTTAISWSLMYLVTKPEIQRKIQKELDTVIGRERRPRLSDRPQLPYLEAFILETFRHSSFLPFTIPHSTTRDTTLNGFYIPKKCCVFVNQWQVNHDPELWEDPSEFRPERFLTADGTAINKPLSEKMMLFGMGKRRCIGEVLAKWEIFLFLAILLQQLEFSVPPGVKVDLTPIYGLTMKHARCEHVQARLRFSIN
Description: The metabolic reactions of representative substrates of 5 major human CYP subtypes (CYP1A2, CYP2C9, CYP2C19, CYP2D6, CYP3A4/5) were evaluated using 150-donor pooled human liver microsomes (purchased from Corning, Cat. No. 452117). The effects of different concentrations of the test compounds on the metabolic reactions of phenacetin (CYP1A2), diclofenac sodium (CYP2C9), S-mephenytoin (CYP2C19), bufuralol hydrochloride (CYP2D6) and midazolam (CYP3A4/5) were determined by liquid chromatography-tandem mass spectrometry (LC/MS/MS).
30 μM phenacetin, 10 μM diclofenac sodium, 35 μM S-mephenytoin, 5 μM bufuralol hydrochloride, 3 μM midazolam, 1 mM NADPH, and test compounds (at concentrations of 0.1 μmol/L, 0.3 μmol/L, 1 μmol/L, 3 μmol/L, 10 μmol/L, and 30 μmol/L, respectively) or positive compound or blank were incubated with 200 μL of a reaction system of pooled human liver microsomes (0.2 mg/mL) (100 mmol/L phosphate buffer, pH 7.4, containing 0.3% by volume of DMSO, 0.6% by volume of acetonitrile, and 0.1% by volume of methanol) at 37° C. for 5 min. Then, 200 μL of acetonitrile containing 3% formic acid and 40 nM internal standard verapamil was added, and the mixture was centrifuged at 4000 rpm for 50 min. The mixture was cooled on ice for 20 min and centrifuged at 4000 rpm for 20 min to precipitate the protein. 200 μL of the supernatant was analyzed by LC/MS/MS.
The peak area was calculated from the chromatogram. The residual activity rate (%) was calculated by the following formula:
peak area rate=peak area of metabolite/peak area of internal standard
residual activity rate (%)=peak area proportion of the test compound group/peak area proportion of the blank group
The half maximal inhibitory concentrations (IC50) against CYP were calculated by Excel XLfit 5.3.1.3.

SMILES | IC50 [µM]
COC(=O)N1CCOC(Cn2c(-c3c(F)cc(N4CCCC4=O)cc3F)nc3cc(C)ccc32)C1 (stereo not shown) [Compound 2, Methyl 2-((2-(2,6-difluoro-4-(2-carbonylpyrrolidin-1-yl)phenyl)-5-methyl-1H-benzo[d]imidazol-1-yl)methyl)morpholine-4-carboxylate] | > 30
[2H]C([2H])([2H])c1ccc2c(c1)nc(-c1c(F)cc(N3CCCC3=O)cc1F)n2C[C@H]1CN(C(C)=O)CCO1 [Compound 14, (S)-1-(4-(1-((4-acetylmorpholin-2-yl)methyl)-5-(methyl-d3)-1H-benzo[d]imidazol-2-yl)-3,5-difluorophenyl)pyrrolidin-2-one] | > 30
CC(=O)N1CCO[C@@H](Cn2c(-c3ccc(N4CCCC4=O)cc3Cl)nc3cc(C)ccc32)C1 [Compound 3, (S)-1-(4-(1-((4-acetylmorpholin-2-yl)methyl)-5-methyl-1H-benzo[d]imidazol-2-yl)-3-chlorophenyl)pyrrolidin-2-one] | > 30
CC(=O)N1CCO[C@@H](Cn2c(-c3c(F)cc(N4CCCC4=O)cc3Cl)nc3cc(C)ccc32)C1 [Compound 4, (S)-1-(4-(1-((4-acetylmorpholin-2-yl)methyl)-5-methyl-1H-benzo[d]imidazol-2-yl)-3-chloro-5-fluorophenyl)pyrrolidin-2-one] | > 30
CC(=O)N1CCOC(Cn2c(-c3c(F)cc(N4CCCC4=O)cc3F)nc3cc(C)ccc32)C1 (stereo in doubt) [Compound 1] | > 30
COC(=O)N1CCO[C@@H](Cc2c(-c3c(F)cc(N4CCCC4=O)cc3F)nc3cc(C)ccn23)C1 [Compound 9, Methyl (S)-2-((2-(2,6-difluoro-4-(2-carbonylpyrrolidin-1-yl)phenyl)-7-methylimidazo[1,2-a]pyridin-3-yl)methyl)morpholine-4-carboxylate] | > 30
CC(=O)N1CCO[C@@H](Cn2c(-c3c(F)cc(N4CCCC4=O)cc3F)nc3cc(Cl)ccc32)C1 [Compound 10, (S)-1-(4-(1-((4-acetylmorpholin-2-yl)methyl)-5-chloro-1H-benzo[d]imidazol-2-yl)-3,5-difluorophenyl)pyrrolidin-2-one] | > 30
